From patent US20100173888A1 (Pfizer Inc, priority 2008, published 2010) come the findings set out here.

Molecules are shown by their SMILES. pIC50: −log10 of the molar value.

The target in this assay is human recombinant H-PGDS (Homo sapiens, UniProt O60760). Nature of the assay: Slightly modified fluorescence intensity h-PGDS TBA enzyme assay (1:40,000 enzyme, 40 second reaction, 1/2 log dilutions, top concentration typically 10 μM). The format is biochemical. As to conditions: slightly modified assay: 1:40,000 human recombinant H-PGDS. As for the experimental part: Fluoresecence Intensity h-PGDSTBA Enzyme Assay
Prostaglandin D Synthase (PGDS) converts the substrate prostaglandin H2 (PGH2) to prostaglandin D2. The depletion of PGH2 was measured via an Fe(II) reduction of the remaining PGH2 to malondialdehyde (MDA) and 12-HHT. The enzyme assay is based on the quantitative formation of a fluorescent complex from the non-fluorescent compounds MDA and 2-thiobarbituric acid (TBA), substantially as described in U.S. patent application publication US-2004/152148 by Lombardt.
Examples 6-8, 11a-16, 23, 26-47, 49-103, 105-113, 115-118 and 126-128 were tested in a slightly modified assay: The enzyme assay (30 μls during biological process) contained 100 mM Trizma pH 8.0, 100 μM MgCl2, 0.1 mg/ml IgG Rabbit serum, 5.0 μM PGH2 (Cayman; ethanol solution, #17020), 2.5 mM L-Glutathione (Sigma; reduced form #G4251), 1:40,000 human recombinant H-PGDS (from 1 mg/ml), 0.5% DMSO and inhibitor (varying concentration). 3 μls of diluted inhibitor (dissolved in DMSO) was plated into a 384-well assay plate followed by a 24 μl addition of an enzyme solution containing h-PGDS, Trizma, MgCl2, IgG and L-Glutathione. After pre-incubation of inhibitor and enzyme solution for 10 minutes at room temperature, the reaction was initiated with a 3 μl addition of substrate solution in 10 mM HCl. The reaction was terminated after 40 second by the addition of 3 μl stop buffer containing FeCl2 and citric acid. After addition of 45 μls of TBA plates were heated for one hour in a 70° C. oven. Plates were cooled at room temperature overnight and read on a plate reader the next day with excitation @ 530 nm and emission @ 560 nm. IC50' s of inhibitors were calculated with a 4-parameter fit using 11 inhibitor concentrations in duplicate with ½ log serial dilutions. Controls on each plate included no inhibitor (zero % effect) and an inhibitor 500-fold in excess of its' IC50 (100% effect). The highest inhibitor concentration tested was typically 10 μM.

Sequence of human recombinant H-PGDS (O60760 whole entry): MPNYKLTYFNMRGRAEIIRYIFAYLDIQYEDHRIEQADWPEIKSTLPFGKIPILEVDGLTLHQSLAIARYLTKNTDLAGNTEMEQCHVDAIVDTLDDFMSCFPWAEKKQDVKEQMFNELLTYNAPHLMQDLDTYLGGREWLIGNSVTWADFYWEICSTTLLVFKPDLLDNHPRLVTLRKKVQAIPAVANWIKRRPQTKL

As for `O=C(N[C@H]1CC[C@@H](CN2CCOCC2)CC1)c1ccc(-c2cccc(F)c2)nc1` [Example 80, 6-(3-Fluorophenyl)-N-[cis-4-(morpholin-4-ylmethyl)cyclohexyl]nicotinamide], the pIC50 was 7.78.
Next, `O=C(NC1CCC(N2CCOCC2)CC1)c1ccc(-c2cccc(F)c2)nc1` (single isomer, unassigned) [Example 49, 6-(3-Fluorophenyl)-N-(4-morpholin-4-ylcyclohexyl)nicotinamide]: 7.16; `O=C(N[C@@H]1CC[C@H](C(=O)N2CCNCC2)C1)c1ccc(-c2cccc(F)c2)nc1` [Example 13, 6-(3-Fluorophenyl)-N-[(1R,3S)-3-(piperazin-1-ylcarbonyl)cyclopentyl]nicotinamide]: 7.78.
On to `O=C(N[C@H]1CCC[C@@H](C(=O)N2CCC(O)CC2)C1)c1ccc(-c2cccc(F)c2)nc1` (relative stereo) [Example 28, 6-(3-Fluorophenyl)-N-{cis-3-[(4-hydroxypiperidin-1-yl)carbonyl]cyclohexyl}nicotinamide], for which the pIC50 is 8.43.
As for `O=C(N[C@H]1CCC[C@H]1C(=O)O)c1ccc(-c2cccc(F)c2)nc1` [Example 8], the pIC50 is 5.76.
Then `CN(C)CCCNC(=O)[C@@H]1CCC[C@H](NC(=O)c2ccc(-c3cccc(F)c3)nc2)C1` (relative stereo) [Example 64F, N-[cis-3-{[3-(dimethylamino)propyl]carbamoyl}cyclohexyl]-6-(3-fluorophenyl)nicotinamide], with 7.77.
Then `COCCN(C)C1CCC(NC(=O)c2ccc(-c3cccc(F)c3)nc2)CC1` (single isomer, unassigned) [Example 58, 6-(3-Fluorophenyl)-N-{4-[(2-methoxyethyl)(methyl)amino]cyclohexyl}nicotinamide], with 6.51.
Then `O=C(N[C@H]1CCC[C@@H](C(=O)N2CCCC2)C1)c1ccc(-c2cccc(F)c2)nc1` (relative stereo) [Example 29, 6-(3-Fluorophenyl)-N-[cis-3-(pyrrolidin-1-ylcarbonyl)cyclohexyl]nicotinamide], with 8.30; and `O=C(N[C@H]1CC[C@@H](C(=O)O)C1)c1ccc(-c2cccc(F)c2)nc1` [Example 11b, (1R,3S)-3-({[6-(3-Fluorophenyl)pyridin-3-yl]carbonyl}amino)cyclopentanecarboxylic acid], with 7.86.
For the molecule `O=C(N[C@H]1CC[C@H](CO)CC1)c1ccc(-c2cccc(F)c2)nc1` [Example 103, 6-(3-Fluorophenyl)-N-[trans-4-(hydroxymethyl)cyclohexyl]nicotinamide], the pIC50 was 8.84.
Consider `CCn1cnc2c1CCC(NC(=O)c1ccc(-c3cccc(F)c3)nc1)C2` (centres unmarked) [Example 126, N-(1-Ethyl-4,5,6,7-tetrahydro-1H-benzoimidazol-5-yl)-6-(3-fluoro-phenyl)-nicotinamide], for which the pIC50 was 8.39.
With `NC1CN(C(=O)[C@H]2CC[C@H](NC(=O)c3ccc(-c4cccc(F)c4)nc3)CC2)C1` [Example 100, N-{trans-4-[(3-Aminoazetidin-1-yl)carbonyl]cyclohexyl}-6-(3-fluorophenyl)nicotinamide], the pIC50 was 7.89.
Then `O=C(N[C@H]1CC[C@H](C(=O)N2CCN(C3CC3)CC2)CC1)c1ccc(-c2cccc(F)c2)nc1` [Example 107, N-{trans-4-[(4-Cyclopropylpiperazin-1-yl)carbonyl]cyclohexyl}-6-(3-fluorophenyl)nicotinamide], with 7.51; and `C[C@@H]1CN(C(=O)[C@H]2CC[C@H](NC(=O)c3ccc(-c4cccc(F)c4)nc3)CC2)CCN1` [Example 102, 6-(3-Fluorophenyl)-N-(trans-4-{[(3R)-3-methylpiperazin-1-yl]carbonyl}cyclohexyl)nicotinamide], with 8.01.
For `COCCNC1CCC(NC(=O)c2ccc(-c3cccc(F)c3)nc2)CC1` (single isomer, unassigned) [Example 55, 6-(3-Fluorophenyl)-N-{4-[(2-methoxyethyl)amino]cyclohexyl}nicotinamide], the pIC50 was 7.73.
Regarding `CN1CCN(C2CCC(NC(=O)c3ccc(-c4cccc(F)c4)nc3)CC2)CC1` (single isomer, unassigned) [Example 52, 6-(3-Fluorophenyl)-N-[-4-(4-methylpiperazin-1-yl)cyclohexyl]nicotinamide], the pIC50 is 7.41.
Then `Cc1nccn1[C@H]1CC[C@H](NC(=O)c2ccc(-c3cccc(F)c3)nc2)CC1` [Example 105, 6-(3-Fluorophenyl)-N-[trans-4-(2-methyl-1H-imidazol-1-yl)cyclohexyl]nicotinamide], with 7.83; and `O=C(N[C@H]1CC[C@@H](C(=O)O)CC1)c1ccc(-c2cccc(F)c2)nc1` [Example 66, cis-4-({[6-(3-Fluorophenyl)pyridin-3-yl]carbonyl}amino)cyclohexanecarboxylic acid], with 7.01.
With `N[C@H]1CCN(C(=O)[C@H]2CC[C@H](NC(=O)c3ccc(-c4cccc(F)c4)nc3)CC2)C1` [Example 98, N-(trans-4-{[(3S)-3-Aminopyrrolidin-1-yl]carbonyl}cyclohexyl)-6-(3-fluorophenyl)nicotinamide], the negative-log IC50 (pIC50) is 7.67.
Then `CC(C)NC(=O)[C@H]1CC[C@H](NC(=O)c2ccc(-c3cccc(F)c3)nc2)CC1` [Example 88, 6-(3-Fluorophenyl)-N-[trans-4-(isopropylcarbamoyl)cyclohexyl]nicotinamide], with 7.83; and `C[C@H]1CNCCN1C(=O)[C@H]1CC[C@H](NC(=O)c2ccc(-c3cccc(F)c3)nc2)CC1` [Example 109, 6-(3-Fluorophenyl)-N-(trans-4-{[(2S)-2-methylpiperazin-1-yl]carbonyl}cyclohexyl)nicotinamide], with 7.78; and `CN1CCN(C(=O)[C@H]2CC[C@@H](NC(=O)c3ccc(-c4cccc(F)c4)nc3)C2)CC1` [Example 12, 6-(3-Fluorophenyl)-N-{(1R,3S)-3-[(4-methylpiperazin-1-yl)carbonyl]cyclopentyl}nicotinamide], with 7.95.
Take `O=C(N[C@H]1CC[C@@H](C(=O)NC2CCCC2)CC1)c1ccc(-c2cccc(F)c2)nc1` [Example 69, N-[cis-4-(Cyclopentylcarbmoyl)cyclohexyl]-6-(3-fluorophenyl)nicotinamide]: the pIC50 is 7.83.
As to `O=C(NC1CCc2ncccc2C1)c1ccc(-c2cccc(F)c2)nc1` (centres unmarked) [Example 127, 6-(3-Fluorophenyl)-N-(5,6,7,8-tetrahydroquinolin-6-yl)nicotinamide], the pIC50 was 8.30.
Next, `Cc1nccn1C[C@H]1CC[C@H](NC(=O)c2ccc(-c3cccc(F)c3)nc2)CC1` [Example 113, 6-(3-Fluorophenyl)-N-{trans-4-[(2-methyl-1H-imidazol-1-yl)methyl]cyclohexyl}nicotinamide]: 8.01; `O=C(N[C@H]1CC[C@H](C(=O)N2CCCC2)CC1)c1ccc(-c2cccc(F)c2)nc1` [Example 87, 6-(3-Fluorophenyl)-N-[trans-4-(pyrrolidin-1-ylcarbonyl)cyclohexyl]nicotinamide]: 8.68.
Turning to `COCCNC1CCC(NC(=O)c2ccc(-c3cccc(F)c3)nc2)CC1` (single isomer, unassigned) [Example 54, 6-(3-Fluorophenyl)-N-{4-[(2-methoxyethyl)amino]cyclohexyl}nicotinamide], the pIC50 is 7.06.
Then `CNCCN(C)C(=O)[C@H]1CC[C@@H](NC(=O)c2ccc(-c3cccc(F)c3)nc2)CC1` [Example 76, 6-(3-Fluorophenyl)-N-(cis-4-{methyl[2-(methylamino)ethyl]carbamoyl}cyclohexyl)nicotinamide], with 7.50.
For the molecule `CN(C)C[C@H]1C[C@@H](NC(=O)c2ccc(-c3cccc(F)c3)nc2)C1` [Example 7], the pIC50 was 6.53.
For the molecule `CSc1nccn1C1CCC(NC(=O)c2ccc(-c3cccc(F)c3)nc2)CC1` (centres unmarked) [Example 45, 6-(3-Fluorophenyl)-N-{4-[2-(methylthio)-1H-imidazol-1-yl]cyclohexyl}nicotinamide], the pIC50 was 7.98.
Next, `O=C(N[C@H]1CCC[C@@H](C(=O)NCCCO)C1)c1ccc(-c2cccc(F)c2)nc1` (relative stereo) [Example 64E, 6-(3-fluorophenyl)-N-{cis-3-[(3-hydroxypropyl)carbamoyl]cyclohexyl}nicotinamide]: 8.03.
Regarding `O=C(N[C@H]1CCC[C@@H](C(=O)N2CCN(C3CC3)CC2)C1)c1ccc(-c2cccc(F)c2)nc1` (relative stereo) [Example 43, N-{cis-3-[(4-Cyclopropylpiperazin-1-yl)carbonyl]cyclohexyl}-6-(3-fluorophenyl)nicotinamide], the pIC50 is 7.84.
